According to patent US9963445B2, “Chemical compounds” (SYNGENTA PARTICIPATIONS AG, priority 2013, dated 2018):

Key:
Assay type in all cases: in vivo
[1] = system: Abutilon theophrasti; test: Pre-emergence herbicidal activity, glasshouse pot test; details: pre-emergence spray, rate 1000 g/ha, evaluated after 13 days, scale 0-5
How it was run: (§1)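 Damage score 0–5 (5 = total damage) read 13 d after spraying. Pots sown, sprayed pre-emergence at day 1 with aqueous spray from acetone/water 50:50 + 0.5% Tween 20 formulation; glasshouse 24/16 °C, 14 h light, 65% RH.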

[2] = system: Alopecurus myosuroides; test: as above; details: pre-emergence spray, rate 1000 g/ha, evaluated after 13 days, scale 0-5
How it was run: as §1

[3] = system: Amaranthus retroflexus; test: as above; details: pre-emergence spray, rate 1000 g/ha, evaluated after 13 days, scale 0-5
How it was run: as §1

[4] = system: Echinochloa crus-galli; test: as above; details: pre-emergence spray, rate 1000 g/ha, evaluated after 13 days, scale 0-5
How it was run: as §1

[5] = system: Setaria faberi; test: as above; details: pre-emergence spray, rate 1000 g/ha, evaluated after 13 days, scale 0-5
How it was run: as §1

[6] = system: zea mays; test: as above; details: pre-emergence spray, rate 1000 g/ha, evaluated after 13 days, scale 0-5
How it was run: as §1

[7] = system: Abutilon theophrasti; test: Post-emergence herbicidal activity, glasshouse pot test; parameters: key: 0 = no damage to plant, 5 = total damage to plant; details: Application post-emergence, rate 1000 g/ha, evaluated after 13 days
How it was run: (§2)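 Test solution: technical active ingredient in acetone/water (50:50) containing 0.5% Tween 20, applied as an aqueous spray to 8-day-old plants. Evaluation at 13 days, 0–5 damage scale.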

[8] = system: Alopecurus myosuroides; test: as above; parameters: key: 0 = no damage to plant, 5 = total damage to plant; details: Application post-emergence, rate 1000 g/ha, evaluated after 13 days
How it was run: as §2

[9] = system: Amaranthus retroflexus; test: as above; parameters: key: 0 = no damage to plant, 5 = total damage to plant; details: Application post-emergence, rate 1000 g/ha, evaluated after 13 days
How it was run: as §2

[10] = system: Echinochloa crus-galli; test: as above; parameters: key: 0 = no damage to plant, 5 = total damage to plant; details: Application post-emergence, rate 1000 g/ha, evaluated after 13 days
How it was run: as §2

[11] = system: Setaria faberi; test: as above; parameters: key: 0 = no damage to plant, 5 = total damage to plant; details: Application post-emergence, rate 1000 g/ha, evaluated after 13 days
How it was run: as §2

[12] = system: zea mays; test: as above; parameters: key: 0 = no damage to plant, 5 = total damage to plant; details: Application post-emergence, rate 1000 g/ha, evaluated after 13 days
How it was run: as §2

| SMILES | ABUTH damage score, application pre-emergence [1] | ALOMY damage score, application pre-emergence [2] | AMARE damage score, application pre-emergence [3] | ECHCG damage score, application pre-emergence [4] | SETFA damage score, application pre-emergence [5] | ZEAMX damage score, application pre-emergence [6] | ABUTH herbicidal damage score [7] | ALOMY herbicidal damage score [8] | AMARE herbicidal damage score [9] | ECHCG herbicidal damage score [10] | SETFA herbicidal damage score [11] | ZEAMX herbicidal damage score [12] |
| --- | --- | --- | --- | --- | --- | --- | --- | --- | --- | --- | --- | --- |
| CC1=C(Cl)C(=O)N(c2cc(C(C)C)c(C(=O)OC(C)C)cn2)C1O (stereo not drawn) [AF23] | 1 | 4 | 5 | 5 | 2 | 1 | 4 | 4 | 5 | 5 | 4 | 3 |
| CC1=C(Cl)C(=O)N(c2cc(C(F)(F)F)c(C(=O)OC(C)C)cn2)C1O (stereo not drawn) [AF92] | 2 | 4 | 4 | 3 | 5 | 3 | 5 | 4 | 5 | 5 | 5 | 4 |
| CCc1cc(N2C(=O)C(Cl)=C(C)C2O)ncc1Br (stereo not drawn) [AF99] | 0 | 2 | 2 | 2 | 1 | 1 | 5 | 5 | 5 | 5 | 4 | 1 |
| COC1=C(C)C(O)N(c2cc(C(F)(F)F)c(-c3cnc(OC)nc3)cn2)C1=O (stereo not drawn) [AI14] | 1 | 2 | 5 | 2 | 3 | 1 | 5 | 4 | 5 | 5 | 5 | 3 |
| COC1=C(C)C(O)N(c2cc(C(F)(F)F)c(C(=O)NC(C)(C)C)cn2)C1=O (stereo not drawn) [AI6] | 5 | 4 | 5 | 5 | 5 | 4 | 5 | 5 | 5 | 5 | 5 | 5 |
| COc1cc(N2C(=O)C(Cl)=C(C)C2O)ncn1 (stereo not drawn) [CF21] | 1 | 2 | 4 | 5 | 4 | 2 | 3 | 4 | 3 | 5 | 5 | 3 |
| COc1ccc(-c2ccc(N3C(=O)C(Cl)=C(C)C3O)nc2)cc1 (stereo not drawn) [AF59] | 2 | 0 | 3 | 1 | 0 | 0 | 4 | 1 | 3 | 1 | 2 | 0 |
| CC1=C(Cl)C(=O)N(c2cc(C(C)C#N)ncn2)C1O (stereo not drawn) [CF18] | 1 | 4 | 1 | 1 | 3 | 0 | 4 | 3 | 2 | 2 | 3 | 1 |
| CC1=C(Cl)C(=O)N(c2cc(C(F)(F)F)cc[n+]2[O-])C1O (stereo not drawn) [AF28] | 0 | 0 | 0 | 0 | 0 | 0 | 3 | 1 | 0 | 1 | 3 | 1 |
| CC1=C(Cl)C(=O)N(c2cc(C(F)(F)F)c(-c3ccc(C#N)cc3)cn2)C1O (stereo not drawn) [AF93] | 1 | 0 | 2 | 0 | 0 | 0 | 4 | 4 | 5 | 4 | 4 | 2 |
| COc1ccnc(N2C(=O)C(Cl)=C(C)C2O)c1 (stereo not drawn) [AF44] | 0 | 0 | 0 | 0 | 0 | 0 | 3 | 3 | 1 | 4 | 1 | 2 |
| CCO/C=C\c1cnc(N2C(=O)C(Cl)=C(C)C2O)cc1C(F)(F)F (stereo not drawn) [AF1] | 1 | 1 | 4 | 2 | 2 | 1 | 5 | 5 | 5 | 5 | 5 | 2 |
